Results: patent publication US20150051252A1, “COMPOUNDS FOR USE IN THE TREATMENT OF NEUROBLASTOMA, EWING'S SARCOMA OR RHABDOMYOSARCOMA” (priority 2012, published 2015)

Experiments:
Format in all cases: cell-based
[1] = test system: TE 617.T rhabdomyosarcoma cell line; test: Cell line sensitivity (Cell Titer Glo), TE 617.T; details: TE 617.T cells, 72 h
Protocol: (§1) Cell culture: Cell lines are obtained from commercial sources including ATCC and DSMZ. All cell lines tested are cultured in RPMI or DMEM plus 10% FBS (Invitrogen) as supplier recommended. Cell lines are cultured in T-175 or 3 layer T-175 “triple” flasks using standard tissue culture techniques that are frequently carried out with a robot (CompacT—The Automation Partnership). All cell lines are thawed from frozen stock, grown at 37 C 5% CO2. Adherent lines are dislodged using TrypLE (Invitrogen), are expanded through at least 1 passage of 1:3 dilution and usually 2 to 3 passages before they are added to assay micro-titer plates. Cell count and viability are measured using Trypan dye exclusion with a ViCell counter (Beckman-Coulture). All cell lines are tested for and shown to be free of Mycoplasma using a PCR detection (http://www.radil.missouri.edu). […]
(§2) All assays are automated and are performed with an ultra-high throughput screening system built by the Genomics Institute of the Novartis Research Foundation (GNF Systems; http://www.gnfsystems.com/). […] Cell Titer Glo (Promega), which measures the amount of ATP in the well, is added and luminescence is read on a ViewLux plate reader (Perkin Elmer). […]

[2] = test system: RD rhabdomyosarcoma cell line; test: Cell line sensitivity (Cell Titer Glo), RD; details: RD cells, 72 h
Protocol: as §1, §2

[3] = test system: KYM-1 rhabdomyosarcoma cell line; test: Cell line sensitivity (Cell Titer Glo), KYM-1; details: KYM-1 cells, 72 h, maximum observed response; 0% = vehicle, −100% = MG132 1 μM
Protocol: as §1, §2

[4] = test system: Hs 822.T Ewing's Sarcoma cell line; test: Cell line sensitivity (Cell Titer Glo), Hs 822.T; details: Hs 822.T cells, 72 h
Protocol: as §1, §2

[5] = test system: SK-N-AS neuroblastoma cell line; test: Cell line sensitivity (Cell Titer Glo), SK-N-AS; details: SK-N-AS cells, 72 h, maximum observed response; 0% = vehicle, −100% = MG132 1 μM
Protocol: as §1, §2

[6] = test system: KP-N-SI9s neuroblastoma cell line; test: Cell line sensitivity (Cell Titer Glo), KP-N-SI9s; details: 72 h
Protocol: as §1, §2

[7] = test system: SK-N-FI neuroblastoma cell line; test: Cell line sensitivity (Cell Titer Glo), SK-N-FI; details: SK-N-FI cells, 72 h
Protocol: as §1, §2

[8] = test system: SK-N-SH neuroblastoma cell line; test: Cell line sensitivity (Cell Titer Glo), SK-N-SH; details: SK-N-SH cells, 72 h
Protocol: as §1, §2

[9] = test system: CHP-212 neuroblastoma cell line; test: Cell line sensitivity (Cell Titer Glo), CHP-212; details: CHP-212 cells, 72 h
Protocol: as §1, §2

[10] = test system: SK-ES-1 Ewing's Sarcoma cell line; test: Cell line sensitivity (Cell Titer Glo), SK-ES-1; details: SK-ES-1 cells, 72 h
Protocol: as §1, §2

[11] = test system: IMR-32 neuroblastoma cell line; test: Cell line sensitivity (Cell Titer Glo), IMR-32; details: IMR-32 cells, 72 h, maximum observed response; 0% = vehicle, −100% = MG132 1 μM
Protocol: as §1, §2

[12] = test system: KELLY neuroblastoma cell line; test: Cell line sensitivity (Cell Titer Glo), KELLY; details: KELLY cells, 72 h, maximum observed response; 0% = vehicle, −100% = MG132 1 μM
Protocol: as §1, §2

[13] = test system: SJRH30 rhabdomyosarcoma cell line; test: Cell line sensitivity (Cell Titer Glo), SJRH30; details: SJRH30 cells, 72 h
Protocol: as §1, §2

[14] = test system: Hs 729 rhabdomyosarcoma cell line; test: Cell line sensitivity (Cell Titer Glo), Hs 729; details: Hs 729 cells, 72 h, maximum observed response; 0% = vehicle, −100% = MG132 1 μM
Protocol: as §1, §2

[15] = test system: A-673 rhabdomyosarcoma cell line; test: Cell line sensitivity (Cell Titer Glo), A-673; details: A-673 cells, 72 h
Protocol: as §1, §2

[16] = test system: G-402 (Leiomyoblastoma) cell line; test: Cell line sensitivity (Cell Titer Glo), G-402; details: G-402 cells, 72 h, maximum observed response; 0% = vehicle, −100% = MG132 1 μM
Protocol: as §1, §2

[17] = test system: SIMA neuroblastoma cell line; test: Cell line sensitivity (Cell Titer Glo), SIMA; details: SIMA cells, 72 h, maximum observed response; 0% = vehicle, −100% = MG132 1 μM
Protocol: as §1, §2

[18] = test system: G-401 (Rhabdoid) cell line; test: Cell line sensitivity (Cell Titer Glo), G-401; details: G-401 cells, 72 h, maximum observed response; 0% = vehicle, −100% = MG132 1 μM
Protocol: as §1, §2

[19] = test system: SK-N-BE(2) neuroblastoma cell line; test: Cell line sensitivity (Cell Titer Glo), SK-N-BE(2); details: SK-N-BE(2) cells, 72 h, maximum observed response; 0% = vehicle, −100% = MG132 1 μM
Protocol: as §1, §2

[20] = test system: SK-N-DZ neuroblastoma cell line; test: Cell line sensitivity (Cell Titer Glo), SK-N-DZ; details: SK-N-DZ cells, 72 h
Protocol: as §1, §2

[21] = test system: TC-71 Ewing's Sarcoma cell line; test: Cell line sensitivity (Cell Titer Glo), TC-71; details: TC-71 cells, 72 h
Protocol: as §1, §2

[22] = test system: MHH-ES-1 Ewing's Sarcoma cell line; test: Cell line sensitivity (Cell Titer Glo), MHH-ES-1; details: 72 h
Protocol: as §1, §2

[23] = test system: RH-41 rhabdomyosarcoma cell line; test: Cell line sensitivity (Cell Titer Glo), RH-41; details: RH-41 cells, 72 h
Protocol: as §1, §2

[24] = test system: TE 125.T rhabdomyosarcoma cell line; test: Cell line sensitivity (Cell Titer Glo), TE 125.T; details: TE 125.T cells, 72 h, maximum observed response; 0% = vehicle, −100% = MG132 1 μM
Protocol: as §1, §2

[25] = Cell Titer Glo, inflection point, 0.0025 to 8 uM, read-out: COMPOUND I EC50
[26] = maximum observed response, 0% = vehicle, −100% = MG132 1 μM

## Cc1nc(NC(=O)N2CCC[C@H]2C(N)=O)sc1-c1ccnc(C(C)(C)C(F)(F)F)c1 [COMPOUND I, (S)-Pyrrolidine-1,2-dicarboxylic acid 2-amide 1-({4-methyl-5-[2-(2,2,2-trifluoro-1,1-dimethyl-ethyl)-pyridin-4-yl]-thiazol-2-yl}-amide)]
[1]; [25]
  EC50: 3800 nM
[1]; [26]
  COMPOUND I Amax (% inhibition): −55.2%
[2]; [25]
  EC50: 3300 nM
[2]; [26]
  COMPOUND I Amax (% inhibition): −43.2%
[3]
  COMPOUND I Amax (% inhibition): −38.0%
[4]; [25]
  EC50: 1500 nM
[4]; [26]
  COMPOUND I Amax (% inhibition): −31.6%
[5]
  COMPOUND I Amax (% inhibition): −11.6%
[6]; KP-N-SI9s cells (KRAS mutation), Cell Titer Glo, inflection point, 0.0025 to 8 uM, read-out: COMPOUND I EC50
  EC50: 600 nM
[6]; KP-N-SI9s cells, maximum observed response, 0% = vehicle, −100% = MG132 1 μM
  COMPOUND I Amax (% inhibition): −54.2%
[7]; [25]
  EC50: 6100 nM
[7]; [26]
  COMPOUND I Amax (% inhibition): −55.6%
[8]; [25]
  EC50: 1600 nM
[8]; [26]
  COMPOUND I Amax (% inhibition): −44.6%
[9]; [25]
  EC50: 800 nM
[9]; [26]
  COMPOUND I Amax (% inhibition): −30.9%
[10]; [25]
  EC50: 500 nM
[10]; [26]
  COMPOUND I Amax (% inhibition): −51.7%
[11]
  COMPOUND I Amax (% inhibition): −8.9%
[12]
  COMPOUND I Amax (% inhibition): −4.3%
[13]; [25]
  EC50: 2800 nM
[13]; [26]
  COMPOUND I Amax (% inhibition): −56.5%
[14]
  COMPOUND I Amax (% inhibition): −10.2%
[15]; [25]
  EC50: 5700 nM
[15]; [26]
  COMPOUND I Amax (% inhibition): −56.2%
[16]
  COMPOUND I Amax (% inhibition): −26.4%
[17]
  COMPOUND I Amax (% inhibition): −42.0%
[18]
  COMPOUND I Amax (% inhibition): −46.6%
[19]
  COMPOUND I Amax (% inhibition): −8.7%
[20]; [25]
  EC50: 5300 nM
[20]; [26]
  COMPOUND I Amax (% inhibition): −42.4%
[21]; [26]
  COMPOUND I Amax (% inhibition): −5.4%
[21]; read-out: COMPOUND I EC50, Cell Titer Glo, inflection point, 0.0025 to 8 uM, heading: COMPOUND I EC50
  EC50: > 8000 nM
[22]; MHH-ES-1 cells (amplified PIK3CA), Cell Titer Glo, inflection point, 0.0025 to 8 uM, read-out: COMPOUND I EC50
  EC50: 2700 nM
[22]; MHH-ES-1 cells, maximum observed response, 0% = vehicle, −100% = MG132 1 μM
  COMPOUND I Amax (% inhibition): −79.2%
[23]; [25]
  EC50: 1600 nM
[23]; [26]
  COMPOUND I Amax (% inhibition): −85.4%
[24]
  COMPOUND I Amax (% inhibition): −49.8%
